Where “and” joins values, the source holds several entries; their conditions need not be identical. Identical values can stand only once. Like-named read-outs stand apart in the source and are kept apart here.

As a reminder, the IC50 is the concentration needed to halve the response being measured. One may read the melting point as the temperature, or range, at which the solid turns liquid.

The test system of series [1] is MCF-7. As to the kind of experiment: MTT cytotoxicity assay against breast cancer cell line MCF-7. The note with it: for Cytotoxic activity class against MCF-7: class by IC50. Here is the method: All our newly synthesized hybrids were evaluated for their in vitro anticancer activity by the standard MTT assay against a breast cancer cell line (MCF-7). MTT is a calorimetric assay which relies on the ability of live tumor cells to reduce yellow MTT (3-(4,5-dimethylthiazol-2-yl)-2,5-diphenyltetrazolium bromide) to purple formazan by mitochondrial dehydrogenases, then added DMSO to dissolve the purple formazan and quantified by measuring absorbance at a certain wavelength. The dose response curve for compounds-treated vs. untreated cells is used to quantify the amount of formazan produced to report on the effectiveness of the compounds. […] Cell line: Mammary gland breast cancer (MCF-7). The cell line was obtained from ATCC via Holding company for biological products and vaccines (VACSERA), Cairo, Egypt. […] The cell line elucidated above were used to determine the inhibitory effects of compounds on cell growth using the MTT assay. […] After incubation, the cells were treated with different concentrations of compounds and incubated for an additional 24 h. After 24 h of drug treatment, 20 µL of MTT solution at 5 mg/mL was added and incubated for 4 h. […] The relative cell viability in percentage was calculated as (A570 of treated samples/A570 of the untreated sample) × 100 [48].

The target in series [2] is T1, Pin1 (Homo sapiens, UniProt Q13526). As to the kind of experiment: Pin1 inhibition assay (SensoLyte Green Pin1 Assay Kit). Particulars: for inhibition at 0.0001 µg/mL: conc 0.1 ng/ml; for inhibition at 0.0001 µg/mL / inhibition at 0.001 µg/mL / inhibition at 0.01 µg/mL / inhibition at 0.1 µg/mL: read-out: Pin1 %inh; for inhibition at 0.001 µg/mL: conc 1 ng/ml; for inhibition at 0.01 µg/mL: conc 10 ng/ml; for inhibition at 0.1 µg/mL: conc 100 ng/ml; for IC50: means ± SD of three experiments. Details: purchased. Format: biochemical. Here is the method: The ability of the synthesized compounds to inhibit the Pin1 activity was evaluated using the SensoLyte® Green Pin1 Assay Kit. This assay is based on using a fluorogenic substrate which was pretreated to convert it into the cis isomer. Pin1 can change this substrate into the trans isomer that is easily cleaved to generate a fluorescent signal.

Series [3] is described as follows: In vitro cytotoxicity against normal Human lung fibroblast (WI38) cell line. Particulars: human, WI38 normal lung fibroblast cells. Format: cell-based.
For series [4], the target named is T1, Pin1. As to the kind of experiment: 2D 15N-1H HSQC NMR binding to 15N-labeled Pin1. The note with it: Pin1 200 µM, compound 1 mM, 5% DMSO. On the set-up: Backbone and side-chain chemical shift assignments of full-length, apo, human Pin1; made in house. An excerpt:
Herein, ^15N-labeled Pin1 enzyme is used where we recorded HSQC spectra of the protein alone and in the presence of an excess amount of one of the newly synthesized compounds. The main challenge we faced in our research was the compound solubility in a balanced mixture of the protein aqueous buffer. Although our compound was freely soluble in DMSO, it is inapplicable to use pure DMSO to dissolve the protein because this will result in protein denaturation and probably aggregation. Therefore, only one compound was tested where we were able to dissolve it partially in a mixture of 95% buffer and 5% DMSO. In addition, as a control, the spectrum was recorded only in presence of DMSO and compared to the ones with the ligand. The proportion of Pin1 to the compounds was adjusted to be […]. […] Chemical shift perturbation and peak shifting are indicative of fast exchange between free and bound states which results in peak positions averaging. […] This peak disappearing indicated exchange on the μs–ms time scale (Figure 1). Furthermore, our NMR results have been verified using cell lines.
The expression and purification of ^15N-labeled Pin1 was performed according to the known protocol. The enzyme sample reached a final concentration of 200 µM in PBS buffer at pH = 6.5. Compound number 12 was dissolved in DMSO and added to the protein to achieve a final concentration of 1 mM in the NMR tube. […]

Series [5] concerns the target Pin1's PPIase activity. Details: method as in PMID 19969456. Particulars: read-out: IC50 of Pin1's PPIase activity inhibition; cited from earlier work.
The mark [6] stands for this setting: Homo sapiens, MCF7, 24 h, read-out: In Vitro Cytotoxicity IC50 MCF-7, MTT assay, 24 h treatment.
[7] abbreviates: Homo sapiens, MCF7, read-out: IC50 against breast cancer cell line (MCF-7), MTT assay, section 2.2.

T1 sequence (Q13526 whole entry): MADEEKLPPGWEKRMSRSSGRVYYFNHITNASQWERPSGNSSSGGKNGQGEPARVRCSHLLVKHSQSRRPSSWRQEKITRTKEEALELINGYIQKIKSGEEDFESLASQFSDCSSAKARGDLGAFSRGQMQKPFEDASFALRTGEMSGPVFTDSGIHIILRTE

In the case of “2-(4-Bromophenyl)-7,8-dichlorobenzo[4,5]imidazo[1,2-a]pyridin-4-ol [Compound 14]”, half-maximal inhibition in series [1] (IC50) was put at 46 ± 2.9 µM.
As to `CC(O)c1nc2cc(Cl)c(Cl)cc2[nH]1` (stereo not shown) [Compound 2], in series [2], the inhibition at 0.0001 µg/mL amounted to 39.2%, the inhibition at 0.001 µg/mL was found to be 51.1%, the inhibition at 0.01 µg/mL was determined as 67% and the inhibition at 0.1 µg/mL was 85.2%.
`CN(C)c1ccc(/C=C/C(=O)c2nc3cc(Cl)c(Cl)cc3[nH]2)cc1` [Compound 4, (E)-1-(5,6-Dichloro-1H-benzo[d]imidazol-2-yl)-3-(4-(dimethylamino)phenyl)prop-2-en-1-one] had a melting point of 258 to 260 °C. In series [1] (setting [6]), the concentration for half-maximal inhibition (IC50) came to 26.9 µM. Further, the “Cytotoxic activity class against MCF-7” value in series [1] is “moderate (21–50 (moderate))”. Also, the concentration for half-maximal inhibition (IC50) in series [1] (read-out: In Vitro Cytotoxicity IC50 MCF-7, MTT assay, 24 h treatment) turned out to be 26.8 ± 2.1 µM.
Regarding `CN(C)c1ccc(C2=NN=C(c3nc4cc(Cl)c(Cl)cc4[nH]3)C2)cc1` [Compound 5, 4-(5-(5,6-Dichloro-1H-benzo[d]imidazol-2-yl)-4H-pyrazol-3-yl)-N,N-dimethylaniline], the melting point amounted to 216 °C. In addition, the IC50 at 24 h in series [3] was 67.9 ± 3.6 µM. For the same compound, in series [2], half-maximal inhibition (IC50) was put at 0.00064 ± 3e-05 µM. In series [1] (setting [6]), the 50% inhibitory concentration (IC50) is 11.7 ± 0.9 µM. The IC50 in series [1] (setting [7]) stood at 11.8 µM. In addition, in series [1], the “Cytotoxic activity class against MCF-7” value is “strong (11–20 (strong))”.
In turn, `CN(C)c1ccc(-c2cc(-c3nc4cc(Cl)c(Cl)cc4[nH]3)nc(N)c2C#N)cc1` [Compound 6, 2-Amino-6-(5,6-dichloro-1H-benzo[d]imidazol-2-yl)-4-(4-(dimethylamino)phenyl)nicotinonitrile] came in with a melting point of 168 to 170 °C. Further, the IC50 in series [1] (setting [6]) is 15.4 ± 1.3 µM. The IC50 in series [1] (setting [7]) was 15.5 µM. In addition, the “Cytotoxic activity class against MCF-7” value in series [1] is “strong (11–20 (strong))”.
As to `CN(C)c1ccc(C2C=C(c3nc4cc(Cl)c(Cl)cc4[nH]3)OC(N)=C2C#N)cc1` (stereo not shown) [Compound 7, 2-Amino-6-(5,6-dichloro-1H-benzo[d]imidazol-2-yl)-4-(4-(dimethylamino)phenyl)-4H-pyran-3-carbonitrile], the melting point stood at 150 °C. Besides, the half-inhibitory concentration (IC50) in series [1] (setting [6]) is 21 ± 1.8 µM. In series [1], the “Cytotoxic activity class against MCF-7” value is on record as “moderate (21–50 (moderate))”.
On to `CC(=O)c1nc2cc(Cl)c(Cl)cc2n1CC(=O)c1ccc(Br)cc1` [Compound 9, 2-(2-Acetyl-5,6-dichloro-1H-benzo[d]imidazol-1-yl)-1-(4-bromophenyl)ethan-1-one], for which the melting point is 322 °C. Moreover, in series [2], the inhibition at 0.0001 µg/mL worked out at 34.7%, the inhibition at 0.001 µg/mL turned out to be 42.2%, the inhibition at 0.01 µg/mL amounted to 69.5% and the inhibition at 0.1 µg/mL was 87.5%. In series [1] (setting [6]), the IC50 amounted to 63.9 ± 3.4 µM.
The compound `C=C1c2nc3cc(Cl)c(Cl)cc3n2C=C(c2ccc(Br)cc2)N1c1ccc(C)cc1` [Compound 10, 3-(4-Bromophenyl)-7,8-dichloro-1-methylene-2-(p-tolyl)-1,2-dihydrobenzo[4,5]imidazo[1,2-a]pyrazine] returned a melting point of 211 °C. Moreover, the half-maximal inhibitory concentration (IC50) in series [1] (setting [6]) came out at 53 ± 3.1 µM. For the same compound, the “Cytotoxic activity class against MCF-7” value in series [1] is given as “weak (51–100 (weak))”.
For `C=C1c2nc3cc(Cl)c(Cl)cc3n2C=C(c2ccc(Br)cc2)N1c1ccccc1C` [Compound 11, 3-(4-Bromophenyl)-7,8-dichloro-1-methylene-2-(o-tolyl)-1,2-dihydrobenzo[4,5]imidazo[1,2-a]pyrazine], in that order: 106 °C, 38 ± 2.7 µM and “moderate (21–50 (moderate))”.
`C=C1c2nc3cc(Cl)c(Cl)cc3n2C=C(c2ccc(Br)cc2)N1Cc1ccccc1` [Compound 12, 2-Benzyl-3-(4-bromophenyl)-7,8-dichloro-1-methylene-1,2-dihydrobenzo[4,5]imidazo[1,2-a]pyrazine] yielded a melting point of 85 °C. In series [3], this compound had a half-inhibitory concentration (IC50) at 24 h of 45.7 ± 2.8 µM. The IC50 in series [2] was 0.00111 µM and 0.0011 µM. Further, in series [4], the “Binding to Pin1 by HSQC spectra overlay” value was “chemical shift perturbation and peak disappearance”. Also, the half-inhibitory concentration (IC50) in series [1] (setting [6]) was determined as 31.3 ± 2.5 µM. Further, the “Cytotoxic activity class against MCF-7” value in series [1] was “moderate (21–50 (moderate))”.
`Cc1nc(-c2ccc(Br)cc2)cn2c1nc1cc(Cl)c(Cl)cc12` [Compound 13, 3-(4-Bromophenyl)-7,8-dichloro-1-methylbenzo[4,5]imidazo[1,2-a]pyrazine] returned a melting point of 290 °C. Also, the IC50 in series [1] (setting [6]) came out at 71.8 ± 3.8 µM. In series [1] (setting [7]), the 50% inhibitory concentration (IC50) came out at 71.9 µM. The “Cytotoxic activity class against MCF-7” value in series [1] is on record as “weak (51–100 (weak))”.
As for `O=C(O)c1cc2ccccc2[nH]1` [Indole-2-carboxylic acid (I), Indole-2-carboxylic acid], the IC50 in series [5] is 16 µM.
In the case of Tannic acid [reference compound], in series [2], the IC50 was 0.000535 µM and 0.00053 µM.

(Values after paper PMC9414874, “New Benzimidazoles Targeting Breast Cancer: Synthesis, Pin1 Inhibition, 2D NMR Binding, and Computational Studies” (Molecules, 2022).)
